Experimental data reported in article PMC6271906, “Sesquiterpenes from the Brazilian Red Alga Laurencia dendroidea J. Agardh” (Molecules, 2014).

What was measured:
RAW 264.7 cells = assay: Lactate dehydrogenase (LDH) cytotoxicity assay; type: cell-based, murine; conditions: for toxicity (LDH release), in words: RAW 264.7 cells, cell viability by LDH release
Description: (§1) LDH assay was used to evaluate the toxicity of the studied samples towards macrophage cultures. The release of LDH (cytoplasmic enzyme lactate dehydrogenase) from RAW 264.7 cells treated with samples was determined using 50 µL of cell culture supernatant collected 24 h after the treatment, as described in the previous section. The LDH release, which represents an indirect indication of cytotoxicity, was determined colorimetrically using a commercial kit (Doles Reagentes e Equipamentos para Laboratorios Ltda., Goiânia, Brazil). The specific release was calculated as a percentage of the controls: non-treated macrophages as the negative control (O.D. 0.249, cytotoxicity 1.99% ± 0.62%) and 1% Triton X-100 (Vetec Chem., Duque de Caxias, Brazil) detergent treated macrophages as the positive control (O.D. 1.278, cytotoxicity 99.95% ± 2.26%). Final concentrations of DMSO, used as the carrier solvent for the samples, were tested in parallel as a control. Cytotoxicity was shown as percentage of controls. Tests were performed in triplicate and the mean value and standard deviation were calculated.

[1] = Lactate dehydrogenase (LDH) cytotoxicity assay; type: cell-based, murine; conditions: mouse, RAW 264.7 macrophage cells; LDH release from RAW 264.7 cells, 24 h after treatment
Description: as §1

[2] = tested on: Mycobacterium bovis BCG strain Moreau; assay: microbe, parasite or virus in culture; type: cell-based; conditions: Mycobacterium tuberculosis variant bovis BCG, 168 h, read-out: IC50 M. bovis BCG
[3] = tested on: NO production by LPS-activated RAW 264.7 macrophages; assay: NO production by LPS-stimulated RAW 264.7 macrophages (Griess test); type: cell-based, murine; conditions: Mus musculus, RAW264.7; for IC50: LPS-stimulated RAW 264.7 macrophages, 24 h incubation
Description: (§2) The murine peritoneal macrophage cell line RAW 264.7 was obtained from the American Type Culture Collection (ATCC, Rockville, MD, USA) and grown at 37 °C and 5% CO2 in DMEM F-12 that was supplemented with 10% FCS and gentamicin (50 µg/mL). RAW 264.7 cells (1 × 10^5 cells/well) were seeded in flat bottom 96-well tissue culture plates (Corning Inc., Corning, NY, USA) in the presence or absence of various concentrations of the samples (100, 20 and 4 µg/mL) and/or LPS (Escherichia coli 055:B5; Sigma-Aldrich). After a 24 h incubation period, culture supernatants were collected for NO and TNF-α assays. Nitrite, a stable NO metabolite, was determined by using the Griess test. As a positive control of inhibitory activity, intact, untreated macrophages were used. As a negative control, macrophages stimulated with 1 µg/mL LPS were used. […] TNF-α was measured by an L929 fibroblast bioassay. This assay system uses murine L929 cells sensitive to TNF-α. For this, murine fibroblast cell line L929 cells (ATCC) (2 × 10^5 cells/well) were seeded in flat bottom 96-well tissue culture plates (Corning Inc.) 24 h before of being inoculated with macrophage culture supernatant and actinomycin D (2 µg/mL) added. After 24 h of incubation with macrophage culture supernatant, L929 viability was assayed by MTT [3-(4,5-dimethylthiazol-2-yl)-2,5diphenyltetrazolium bromide] method. The cytokine levels were calculated by using a purified recombinant mouse cytokine to obtain a standard curve that correlates cellular viability and TNF-α concentration.

[4] = tested on: TNF-α production by LPS-activated RAW 264.7 macrophages; assay: TNF-α production by LPS-stimulated RAW 264.7 macrophages (L929 fibroblast bioassay); type: cell-based, murine; conditions: Mus musculus, RAW264.7, 24 h incubation
Description: as §2

Row | Molecule | cytotoxicity (specific LDH release, percentage of controls) (RAW 264.7 cells; 1% detergent, positive control, RAW 264.7 macrophages) | toxicity (LDH release), in words (RAW 264.7 cells) | IC50 at 24 h [1] [µM] | IC50 [2] [µM] | IC50 [3] [µM] | IC50 [4] [µM] | inhibition at 20 µg/mL ([3]; positive control at 20 µg/mL) [%]
1 | Triton X-100 [reference compound] | 99.95% ± 2.26 |  |  |  |  |  | 
2 | C=C1C[C@@H](O)CC(C)(C)[C@]12CCC(C)=C(Cl)C2 [Compound 3, Debromoelatol] |  | no toxicity whatsoever | > 392 | 82.4 ± 4.7 | 69.1 ± 4.7 | 134 ± 7.4 | 
3 | CC1CCC23C1CCC2(C)CC(C)C3(C)O (stereo not drawn) [Compound 5, (1S*,2S*,3S*,5S*,8S*,9S*)-2,3,5,9-tetramethyltricyclo[6.3.0.01.5]undecan-2-ol] |  | no toxicity whatsoever | 416 ± 4.9 | 205 ± 7.6 | 74.6 ± 5.8 | 393.4 ± 0.4 | 
4 | C=C1CC(O)C(Br)C(C)(C)C12CCC(C)(O)C(Cl)C2 (centres unmarked) [Compound 2] |  | no toxicity whatsoever | > 284 | 80.2 ± 4.3 | > 284 | > 284 | 
5 | C=C1CC[C@@H](Br)C(C)(C)[C@]12CC[C@](C)(Br)[C@@H](Cl)C2 [Compound 4, obtusane] |  | only moderately toxic | 197.2 ± 1 | 44.7 ± 4 | 44.9 ± 3 | > 251 | 
6 | [H]/N=C(/NC)NCCC[C@H](N)C(=O)O [L-NMMA, L-N-monomethyl-arginine, reference compound] |  |  |  |  | 71.3 ± 4.4 |  | 59.2
